The target of one assay is T1, CDK2/cyclin A (Homo sapiens, UniProt P24941).
T1 construct: made in house; host or cells: CDK2: insect cells (baculovirus); cyclin A: E. coli
Kind of assay: Inhibition of CDK2/cyclin A retinoblastoma kinase activity (Ki; % inhibition). Type of assay: biochemical. A digest of the protocol:
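Radiometric filter assay of CDK2/proteolyzed cyclin A (baculovirus-expressed human CDK2, 10 or 19 nM) phosphorylating an Rb fragment with 25 μM [³²P/³³P]ATP in pH 7.4 HEPES, 2% DMSO, at 30 °C for 60 or 75 min under initial-rate conditions. Library compounds screened at 30 nM for % inhibition; apparent Ki from concentration series fit to competitive or tight-binding inhibition equations.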

For another assay, the target named is T2, human CDK4/cyclin D3 (Homo sapiens, UniProt P11802).
T2 construct: made in house; host or cells: insect cells co-infected with baculovirus vectors
Kind of assay: Inhibition of CDK4/cyclin D retinoblastoma kinase activity (Ki; % inhibition). It is filed as biochemical. Summed up:
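Insect-cell-expressed CDK4 with truncated cyclin D3 (1-264), 5 nM, phosphorylating His-tagged Rb fragment (386-928) with 25 μM [32/33P]ATP at pH 7.4, 30 °C, 20 min (60 min for tight binders). Filter capture, phosphorimager read; % inhibition at 30 nM compound, Ki from competitive or tight-binding fits.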

For the next assay, the system named is HCT-116 cell line. Description: Inhibition of cell growth, MTT tetrazolium salt assay. It is filed as cell-based. Summed up:
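Growth inhibition was read as MTT-formazan absorbance at 540 nm, after 4 h with 0.2 mg/mL MTT. Before that, HCT-116 cells had been exposed 3–5 days at 37 °C to compounds in 0.5% (v/v) DMSO, added 4 h after plating. 50% and 90% inhibitory concentrations were taken from semi-log concentration–inhibition plots versus vehicle controls.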

Setting [1] is: HCT-116 cells, 0.25 μM compound.

T2 sequence (P11802 whole entry): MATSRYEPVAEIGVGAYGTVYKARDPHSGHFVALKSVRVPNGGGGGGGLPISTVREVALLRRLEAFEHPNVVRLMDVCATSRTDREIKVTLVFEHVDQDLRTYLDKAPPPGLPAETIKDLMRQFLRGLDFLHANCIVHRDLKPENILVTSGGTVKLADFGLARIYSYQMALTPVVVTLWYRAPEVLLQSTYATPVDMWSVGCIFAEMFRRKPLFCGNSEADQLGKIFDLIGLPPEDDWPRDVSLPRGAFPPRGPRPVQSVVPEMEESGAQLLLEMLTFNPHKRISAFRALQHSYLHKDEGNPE
T2 sequence (P30281 1-264 partner limits assumed): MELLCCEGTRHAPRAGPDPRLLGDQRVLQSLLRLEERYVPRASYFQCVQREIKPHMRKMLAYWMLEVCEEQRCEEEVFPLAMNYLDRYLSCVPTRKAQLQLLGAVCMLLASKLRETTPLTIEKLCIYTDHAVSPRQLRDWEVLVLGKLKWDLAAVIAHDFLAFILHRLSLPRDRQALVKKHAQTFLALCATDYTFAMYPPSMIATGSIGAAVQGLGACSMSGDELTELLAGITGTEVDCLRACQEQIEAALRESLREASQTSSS

On to `Nc1nc(Nc2ccc(C(=O)NCCc3ccc(F)cc3)cc2)sc1C(=O)c1c(F)cccc1F` [Example G355], for which the “CDK2 % Inhibition at 0.03 μM” value on CDK2/cyclin A (0.03 μM compound) stood at 29%. Moreover, at human CDK4/cyclin D3 (0.03 μM compound), the “CDK4 % Inhibition at 0.03 μM” value was determined as 13%. For the same molecule, the “HCT-116 % Inhibition at 0.1 μM” value with HCT-116 cell line (HCT-116 cells, 0.1 μM compound) stood at 28%. For the same molecule, the “HCT-116 % Inhibition at 0.25 μM” value with HCT-116 cell line (setting [1]) stood at 54%.
For `Nc1nc(Nc2ccc(C(=O)N(CCCCO)Cc3ccccc3)cc2)sc1C(=O)c1c(F)cccc1F` [Example G351], in that order: 0%, −1%, 24% and 62%.
The matching figures for `Nc1nc(Nc2ccc(C(=O)NCc3ccc(OC(F)(F)F)cc3)cc2)sc1C(=O)c1c(F)cccc1F` [Example G208]: 36%, 36%, 11% and 56%.
As to `Nc1nc(Nc2ccc(C(=O)N3CCC(CCO)CC3)cc2)sc1C(=O)c1c(F)cccc1F` [Example G63], on CDK2/cyclin A (at 0.03 μM), the “CDK2 % Inhibition at 0.03 μM” value worked out at 4%. Moreover, on human CDK4/cyclin D3 (at 0.03 μM), the “CDK4 % Inhibition at 0.03 μM” value worked out at 7%. Besides, the “HCT-116 % Inhibition at 0.25 μM” value in the assay on HCT-116 cell line (HCT-116, at 0.25 μM) was determined as 54%.
On to `CCN(CC)C(=O)c1ccc(Nc2nc(N)c(C(=O)c3c(F)cccc3F)s2)cc1` [Example C232], for which the “CDK2 % Inhibition at 0.03 μM” value at CDK2/cyclin A (0.03 μM compound) was found to be 9%. Further, at human CDK4/cyclin D3 (0.03 μM compound), the “CDK4 % Inhibition at 0.03 μM” value is on record as 19%. Further, the “HCT-116 % Inhibition at 0.1 μM” value with HCT-116 cell line (HCT-116 cells, 0.1 μM compound) is reported as 9%. Further, the “HCT-116 % Inhibition at 0.25 μM” value in the assay with HCT-116 cell line (setting [1]) came out at 53%.
In the case of `COC(=O)c1ccc(NC(=O)c2ccc(Nc3nc(N)c(C(=O)c4c(F)cccc4F)s3)cc2)cc1OC` [Example G220], on CDK2/cyclin A (0.03 μM compound), the “CDK2 % Inhibition at 0.03 μM” value was found to be 10%. Besides, the “CDK4 % Inhibition at 0.03 μM” value at human CDK4/cyclin D3 (0.03 μM compound) worked out at 12%. In addition, in the assay with HCT-116 cell line (HCT-116 cells, 0.1 μM compound), the “HCT-116 % Inhibition at 0.1 μM” value amounted to 18%. For the same molecule, the “HCT-116 % Inhibition at 0.25 μM” value in the assay on HCT-116 cell line (setting [1]) is reported as 54%.
For `CC(=O)N1CCN(C(=O)c2ccc(Nc3nc(N)c(C(=O)c4c(F)cccc4F)s3)cc2)CC1` [Example G65], on CDK2/cyclin A (at 0.03 μM), the “CDK2 % Inhibition at 0.03 μM” value is given as 12%. In addition, the “CDK4 % Inhibition at 0.03 μM” value on human CDK4/cyclin D3 (at 0.03 μM) amounted to 17%. Also, the “HCT-116 % Inhibition at 0.25 μM” value in the assay on HCT-116 cell line (HCT-116, at 0.25 μM) was found to be 58%.
For `CCOC(=O)c1ccccc1NC(=O)c1ccc(Nc2nc(N)c(C(=O)c3c(F)cccc3F)s2)cc1` [Example G46], in that order: 4%, 11% and 58%.
With `CCOC(=O)C1CCN(C(=O)c2ccc(Nc3nc(N)c(C(=O)c4c(F)cccc4F)s3)cc2)CC1` [Example G210], on CDK2/cyclin A (0.03 μM compound), the “CDK2 % Inhibition at 0.03 μM” value is 13%. Further, the “CDK4 % Inhibition at 0.03 μM” value at human CDK4/cyclin D3 (0.03 μM compound) is reported as 20%. Further, the “HCT-116 % Inhibition at 0.1 μM” value in the assay on HCT-116 cell line (HCT-116 cells, 0.1 μM compound) is listed as 15%. For the same molecule, the “HCT-116 % Inhibition at 0.25 μM” value with HCT-116 cell line (setting [1]) is on record as 45%.
`Cc1cc(NC(=O)c2ccc(Nc3nc(N)c(C(=O)c4c(F)cccc4F)s3)cc2)ccc1C(C)C` [Example G107]: at CDK2/cyclin A (at 0.03 μM), the “CDK2 % Inhibition at 0.03 μM” value is reported as −5%. In addition, the “CDK4 % Inhibition at 0.03 μM” value at human CDK4/cyclin D3 (at 0.03 μM) was found to be 12%. For the same molecule, the “HCT-116 % Inhibition at 0.1 μM” value with HCT-116 cell line (HCT-116, at 0.1 μM) came out at 5%. For the same molecule, the “HCT-116 % Inhibition at 0.25 μM” value with HCT-116 cell line (HCT-116, at 0.25 μM) stood at 59%.
Regarding `CCCCN(Cc1ccccc1)C(=O)c1ccc(Nc2nc(N)c(C(=O)c3c(F)cccc3F)s2)cc1` [Example G306], the “CDK2 % Inhibition at 0.03 μM” value at CDK2/cyclin A (0.03 μM compound) is reported as −17%. Besides, at human CDK4/cyclin D3 (0.03 μM compound), the “CDK4 % Inhibition at 0.03 μM” value was 0%. Also, in the assay on HCT-116 cell line (HCT-116 cells, 0.1 μM compound), the “HCT-116 % Inhibition at 0.1 μM” value is reported as 9%. In addition, in the assay on HCT-116 cell line (setting [1]), the “HCT-116 % Inhibition at 0.25 μM” value is on record as 44%.
Consider `Nc1nc(Nc2ccc(C(=O)NC3CCOC3=O)cc2)sc1C(=O)c1c(F)cccc1F` (centres unmarked) [Example G199], for which the “CDK2 % Inhibition at 0.03 μM” value at CDK2/cyclin A (0.03 μM compound) is recorded as 18%. On human CDK4/cyclin D3 (0.03 μM compound), the “CDK4 % Inhibition at 0.03 μM” value is 22%. Also, the “HCT-116 % Inhibition at 0.1 μM” value in the assay with HCT-116 cell line (HCT-116 cells, 0.1 μM compound) turned out to be 12%. Moreover, the “HCT-116 % Inhibition at 0.25 μM” value with HCT-116 cell line (setting [1]) worked out at 52%.
For `CC[C@H](NC(=O)c1ccc(Nc2nc(N)c(C(=O)c3c(F)cccc3F)s2)cc1)c1ccccc1` [Example G214], in that order: 11%, 16%, 15% and 52%.
With `CN1CCN(C(=O)c2ccc(Nc3nc(N)c(C(=O)c4c(F)cccc4F)s3)cc2)CC1` [Example G2], the “CDK2 % Inhibition at 0.03 μM” value at CDK2/cyclin A (at 0.03 μM) was −9%. Moreover, the “CDK4 % Inhibition at 0.03 μM” value on human CDK4/cyclin D3 (at 0.03 μM) was 8%. For the same molecule, in the assay with HCT-116 cell line (HCT-116, at 0.25 μM), the “HCT-116 % Inhibition at 0.25 μM” value is 51%.
Consider `CCCCCNC(=O)c1ccc(Nc2nc(N)c(C(=O)c3c(F)cccc3F)s2)cc1` [Example G200], for which the “CDK2 % Inhibition at 0.03 μM” value at CDK2/cyclin A (0.03 μM compound) is given as 15%. Also, on human CDK4/cyclin D3 (0.03 μM compound), the “CDK4 % Inhibition at 0.03 μM” value came out at 23%. In addition, in the assay on HCT-116 cell line (HCT-116 cells, 0.1 μM compound), the “HCT-116 % Inhibition at 0.1 μM” value turned out to be 19%. Also, the “HCT-116 % Inhibition at 0.25 μM” value in the assay on HCT-116 cell line (setting [1]) is 50%.
